# Test results reported in patent US10766903B2 (ALMAC DISCOVERY LIMITED, priority 2016, dated 2020).
# Like-named read-outs stand apart in the source and are kept apart here.
# Biological target: USP7 (Homo sapiens (Human), UniProt Q93009)
# Test: USP7 fluorescence polarisation (FP) biochemical assay, ubiquitin-Lys-TAMRA substrate
# Experimental: Measurement of USP7 Inhibitory Activity
# USP7 activity was monitored in a fluorescence polarisation (FP) homogeneous assay using the isopeptide ubiquitin-Lys-TAMRA substrate (U-558, Boston Biochem). Full-length USP7 was purchased from Boston Biochem (His6-USP7FL, E-519). Unless otherwise stated, all other reagents were purchased from Sigma-Aldrich. Enzymatic reactions were conducted in black flat-bottom polystyrene 384-well plates (Nunc) and 15 μL total volume. USP7 (2.5 nM, 5 μL) was incubated in assay buffer (50 mM HEPES (pH 7.2), 150 mM NaCl, 0.5 mM EDTA, 5 mM DTT, 0.05% BSA (w/v), 0.05% CHAPS) in the presence or absence of inhibitor (5 μl). Inhibitors were stored as 10 mM DMSO stocks in an inert environment (low humidity, dark, low oxygen, room temperature) using a Storage Pod System and serial dilutions were prepared in buffer just prior to the assay (from 200 to 0.1 μM, 8 dp curve). […] FP was measured every 15 min over a period of 1.5 h (within the linear range of the assay) using a Synergy 4 plate reader (BioTek) exciting at 530 nm and measuring the amount of parallel and perpendicular light at 575 nm. The FP signal was subsequently normalised to the control without compound present.
# [1] = Table 4, biochemical assay, average of at least duplicate experiments, read-out: USP7 IC50
# [2] = USP7 IC50, Table 4, biochemical assay, average of at least duplicate experiments
# [3] = Table 3, effect of the R2 substituent, read-out: USP7 IC50
# Sequence of USP7 (Q93009 whole entry): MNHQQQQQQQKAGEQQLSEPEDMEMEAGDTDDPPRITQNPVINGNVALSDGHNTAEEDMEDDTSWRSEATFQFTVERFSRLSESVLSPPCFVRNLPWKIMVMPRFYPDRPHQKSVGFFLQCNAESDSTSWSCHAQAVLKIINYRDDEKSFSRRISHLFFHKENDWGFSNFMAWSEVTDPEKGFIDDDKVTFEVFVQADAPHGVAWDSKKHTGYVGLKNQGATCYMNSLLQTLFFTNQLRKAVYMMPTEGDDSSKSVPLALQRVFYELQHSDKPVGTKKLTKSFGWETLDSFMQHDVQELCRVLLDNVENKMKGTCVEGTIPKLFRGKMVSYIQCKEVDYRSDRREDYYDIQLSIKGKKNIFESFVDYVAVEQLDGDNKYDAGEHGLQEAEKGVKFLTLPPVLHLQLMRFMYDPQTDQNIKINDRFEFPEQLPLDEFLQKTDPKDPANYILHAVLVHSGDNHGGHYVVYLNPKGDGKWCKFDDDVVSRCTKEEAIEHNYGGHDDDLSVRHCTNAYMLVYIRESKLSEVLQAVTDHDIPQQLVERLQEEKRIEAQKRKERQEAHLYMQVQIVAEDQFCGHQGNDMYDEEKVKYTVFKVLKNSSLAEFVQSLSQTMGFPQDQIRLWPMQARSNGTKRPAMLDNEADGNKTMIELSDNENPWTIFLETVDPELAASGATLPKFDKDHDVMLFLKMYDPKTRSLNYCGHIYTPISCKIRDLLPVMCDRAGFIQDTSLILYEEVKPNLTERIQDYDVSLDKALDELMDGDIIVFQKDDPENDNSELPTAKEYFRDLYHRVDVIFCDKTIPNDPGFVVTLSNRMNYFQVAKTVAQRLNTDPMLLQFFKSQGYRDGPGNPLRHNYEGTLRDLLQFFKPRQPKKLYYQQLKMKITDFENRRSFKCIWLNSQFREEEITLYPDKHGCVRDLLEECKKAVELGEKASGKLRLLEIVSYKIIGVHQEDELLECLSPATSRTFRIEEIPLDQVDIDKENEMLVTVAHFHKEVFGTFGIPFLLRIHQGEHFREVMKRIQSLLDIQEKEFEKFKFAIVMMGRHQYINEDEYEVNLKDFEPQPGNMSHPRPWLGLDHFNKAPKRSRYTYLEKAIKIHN
SMILES,IC50 [1] [nM],other results
"COCC(CC(=O)N1CCC(O)(Cn2cnc3c(-c4ccc(CN)cc4)n(C)nc3c2=O)CC1)c1ccccc1 (racemic) [Example 53, (R,S)-3-(4-(Aminomethyl)phenyl)-6-((4-hydroxy-1-(4-methoxy-3-phenylbutanoyl)piperidin-4-yl)methyl)-2-methyl-2H-pyrazolo[4,3-d]pyrimidin-7(6H)-one]",< 250,
"C[C@H](CC(=O)N1CCC(O)(Cn2cnc(NC3CCCC[C@H]3N)cc2=O)CC1)c1ccccc1 (mixture of isomers) [Example 63, rac-6-(((±-trans-1,2)-2-Aminocyclohexyl)amino)-3-((4-hydroxy-1-((R)-3-phenylbutanoyl)piperidin-4-yl)methyl)pyrimidin-4(3H)-one, Formic Acid]",250 to 999,
"C[C@H](CC(=O)N1CCC(O)(Cn2cnc(N[C@@H]3CCCC[C@@H]3N)cc2=O)CC1)c1ccccc1 (racemic) [Example 64, 6-(((±-cis-1,2)-2-Aminocyclohexyl)amino)-3-((4-hydroxy-1-((R)-3-phenylbutanoyl)piperidin-4-yl)methyl)pyrimidin-4(3H)-one, Formic Acid]",250 to 999,
"C[C@H](CC(=O)N1CCC(O)(Cn2cnc(N3C[C@@H]4C[C@H]3CN(C)C4)cc2=O)CC1)c1ccccc1 (single isomer, unassigned) [Example 180]",,IC50 [2]: < 250 nM
"C[C@H](CC(=O)N1CCC(O)(Cn2cnc(N3C[C@H]4C[C@@H]3CN(C)C4)cc2=O)CC1)c1ccccc1 (single isomer, unassigned) [Example 181]",,IC50 [2]: 250 to 999 nM
"C[C@H](CC(=O)N1CCC(O)(Cn2cnc(Cl)cc2=O)CC1)c1ccccc1 [Example 1, (R)-6-Chloro-3-((4-hydroxy-1-(3-phenylbutanoyl)piperidin-4-yl)methyl)pyrimidin-4(3H)-one]",1000 to 200000,
"C[C@H](CC(=O)N1CCC(O)(Cn2cnc(-c3ccncc3)cc2=O)CC1)c1ccccc1 [Example 2, (R)-3-((4-Hydroxy-1-(3-phenylbutanoyl)piperidin-4-yl)methyl)-6-(pyridin-4-yl)pyrimidin-4(3H)-one]",1000 to 200000,
"C[C@H](CC(=O)N1CCC(O)(Cn2cnc(-c3ccn[nH]3)cc2=O)CC1)c1ccccc1 [Example 3, (R)-3-((4-Hydroxy-1-(3-phenylbutanoyl)piperidin-4-yl)methyl)-6-(1H-pyrazol-5-yl)pyrimidin-4(3H)-one]",,IC50 [2]: 250 to 999 nM
"C[C@H](CC(=O)N1CCC(O)(Cn2cnc(N)cc2=O)CC1)c1ccccc1 [Example 5, (R)-6-Amino-3-((4-hydroxy-1-(3-phenylbutanoyl)piperidin-4-yl)methyl)pyrimidin-4(3H)-one]",1000 to 200000,
"C[C@H](CC(=O)N1CCC(O)(Cn2cnc(N3CCN(C)CC3)cc2=O)CC1)c1ccccc1 [Example 8, (R)-3-((4-Hydroxy-1-(3-phenylbutanoyl)piperidin-4-yl)methyl)-6-(4-methylpiperazin-1-yl)pyrimidin-4(3H)-one]",1000 to 200000,
"COc1cc(=O)n(CC2(O)CCN(C(=O)C[C@@H](C)c3ccccc3)CC2)cn1 [Example 9, (R)-3-((4-Hydroxy-1-(3-phenylbutanoyl)piperidin-4-yl)methyl)-6-methoxypyrimidin-4(3H)-one]",1000 to 200000,
"C[C@H](CC(=O)N1CCC(O)(Cn2cnc(OCCN(C)C)cc2=O)CC1)c1ccccc1 [Example 10, (R)-6-(2-(Dimethylamino)ethoxy)-3-((4-hydroxy-1-(3-phenylbutanoyl)piperidin-4-yl)methyl)pyrimidin-4(3H)-one]",,IC50: 1000 to 200000 nM
"C[C@H](CC(=O)N1CCC(O)(Cn2cnc(N3CC[C@H](N)C3)cc2=O)CC1)c1ccccc1 [Example 12, 6-((S)-3-Aminopyrrolidin-1-yl)-3-((4-hydroxy-1-((R)-3-phenylbutanoyl)piperidin-4-yl)methyl)pyrimidin-4(3H)-one]",< 250,
"C[C@H](CC(=O)N1CCC(O)(Cn2cnc(N3CC(N)C3)cc2=O)CC1)c1ccccc1 [Example 13, (R)-6-(3-Aminoazetidin-1-yl)-3-((4-hydroxy-1-(3-phenylbutanoyl)piperidin-4-yl)methyl)pyrimidin-4(3H)-one]",,IC50 [2]: 250 to 999 nM
"C[C@H](CC(=O)N1CCC(O)(Cn2cnc(Cl)c(N)c2=O)CC1)c1ccccc1 [Example 14, (R)-5-Amino-6-chloro-3-((4-hydroxy-1-(3-phenylbutanoyl)piperidin-4-yl)methyl)pyrimidin-4(3H)-one]",1000 to 200000,
"C[C@H](CC(=O)N1CCC(O)(Cn2cnc3c(ncn3C)c2=O)CC1)c1ccccc1 [Example 15, (R)-1-((4-Hydroxy-1-(3-phenylbutanoyl)piperidin-4-yl)methyl)-9-methyl-1H-purin-6(9H)-one]",1000 to 200000,
"C[C@H](CC(=O)N1CCC(O)(Cn2cnc3c(nc(-c4ccccc4)n3C)c2=O)CC1)c1ccccc1 [Example 16, (R)-1-((4-Hydroxy-1-(3-phenylbutanoyl)piperidin-4-yl)methyl)-9-methyl-8-phenyl-1H-purin-6(9H)-one]",1000 to 200000,
"C[C@H](CC(=O)N1CCC(O)(Cn2cnc3c(ncn3-c3ccccc3)c2=O)CC1)c1ccccc1 [Example 17, (R)-1-((4-Hydroxy-1-(3-phenylbutanol)piperidin-4-yl)methyl)-9-phenyl-1H-purin-6(9H)-one]",< 250,
"C[C@H](CC(=O)N1CCC(O)(Cc2cnc3ccccn3c2=O)CC1)c1ccccc1 [Example 18, (R)-3-((4-Hydroxy-1-(3-phenylbutanoyl)piperidin-4-yl)methyl)-4H-pyrido[1,2-a]pyrimidin-4-one]",1000 to 200000,
"C[C@H](CC(=O)N1CCC(O)(Cc2cnc3c(-c4ccccc4)cccn3c2=O)CC1)c1ccccc1 [Example 19, (R)-3-((4-Hydroxy-1-(3-phenylbutanoyl)piperidin-4-yl)methyl)-9-phenyl-4H-pyrido[1,2-a]pyrimidin-4-one]",1000 to 200000,
"C[C@H](CC(=O)N1CCC(O)(Cn2cnc3cn(C)nc3c2=O)CC1)c1ccccc1 [Example 20, (R)-6-((4-Hydroxy-1-(3-phenylbutanoyl)piperidin-4-yl)methyl)-2-methyl-2H-pyrazolo[4,3-d]pyrimidin-7(6H)-one]",1000 to 200000,IC50 [3]: 3000 nM
"C[C@H](CC(=O)N1CCC(O)(Cn2cnc3c(C(F)(F)F)n(C)nc3c2=O)CC1)c1ccccc1 [Example 23, (R)-6-((4-Hydroxy-1-(3-phenylbutanoyl)piperidin-4-yl)methyl)-2-methyl-3-(trifluoromethyl)-2H-pyrazolo[4,3-d]pyrimidin-7(6H)-one]",,"IC50 (USP7 IC50, Table 3, effect of the R2 substituent): 600 nM; IC50 [2]: 250 to 999 nM"
"C[C@H](CC(=O)N1CCC(O)(Cn2cnc3c(-c4ccncc4)n(C)nc3c2=O)CC1)c1ccccc1 [Example 26, (R)-6-((4-Hydroxy-1-(3-phenylbutanoyl)piperidin-4-yl)methyl)-2-methyl-3-(pyridin-4-yl)-2H-pyrazolo[4,3-d]pyrimidin-7(6H)-one]",250 to 999,
"C[C@H](CC(=O)N1CCC(O)(Cn2cnc3c(C#CCO)n(C)nc3c2=O)CC1)c1ccccc1 [Example 31, (R)-6-((4-Hydroxy-1-(3-phenylbutanoyl)piperidin-4-yl)methyl)-3-(3-hydroxyprop-1-yn-1-yl)-2-methyl-2H-pyrazolo[4,3-d]pyrimidin-7(6H)-one]",< 250,
"CC(C)c1c2c(nn1C)C(=O)N(CC1(O)CCN(C(=O)C[C@@H](C)c3ccccc3)CC1)CN2 [Example 34, (R)-6-((4-Hydroxy-1-(3-phenylbutanoyl)piperidin-4-yl)methyl)-3-isopropyl-2-methyl-5,6-dihydro-2H-pyrazolo[4,3-d]pyrimidin-7(4H)-one]",1000 to 200000,
"C=C(C)[C@H](C)CC(=O)N1CCC(O)(Cn2cnc3c(-c4ccccc4)n(C)nc3c2=O)CC1 [Example 35, (R)-6-((1-(3,4-Dimethylpent-4-enoyl)-4-hydroxypiperidin-4-yl)methyl)-2-methyl-3-phenyl-2H-pyrazolo[4,3-d]pyrimidin-7(6H)-one]",250 to 999,
"C=C(C)[C@@H](CC(=O)N1CCC(O)(Cn2cnc3c(-c4ccccc4)n(C)nc3c2=O)CC1)C(F)(F)F [Example 36, (R)-6-((4-Hydroxy-1-(4-methyl-3-(trifluoromethyl)pent-4-enoyl)piperidin-4-yl)methyl)-2-methyl-3-phenyl-2H-pyrazolo[4,3-d]pyrimidin-7(6H)-one]",1000 to 200000,
"Cn1nc2c(=O)n(CC3(O)CCN(C(=O)C[C@H](c4ccccc4)C(F)(F)F)CC3)cnc2c1-c1ccccc1 [Example 37, (R)-6-((4-Hydroxy-1-(4,4,4-trifluoro-3-phenylbutanoyl)piperidin-4-yl)methyl)-2-methyl-3-phenyl-2H-pyrazolo[4,3-d]pyrimidin-7(6H)-one]",250 to 999,
"Cn1nc2c(=O)n(CC3(O)CCN(C(=O)CCc4ccccc4)CC3)cnc2c1C(F)(F)F [Example 39, 6-((4-Hydroxy-1-(3-phenylpropanoyl)piperidin-4-yl)methyl)-2-methyl-3-(trifluoromethyl)-2H-pyrazolo[4,3-d]pyrimidin-7(6H)-one]",1000 to 200000,IC50 [3]: 14000 nM
"C[C@H](CC(=O)N1CCC(O)(Cn2cnc(-c3cnn(C)c3)cc2=O)CC1)c1ccccc1 [Example 40, (R)-3-((4-Hydroxy-1-(3-phenylbutanoyl)piperidin-4-yl)methyl)-6-(1-methyl-1H-pyrazol-4-yl)pyrimidin-4(3H)-one]",,IC50 [2]: 250 to 999 nM
